# Measurements from publication PMC12040169 (PLOS Biology, 2025).
# Experiment: in vitro
# Conditions: human, hela cells, % viability
row,SMILES,"viability at 28.5 h, 10 µM [%]"
1,CCN(CC(=O)Nc1c(F)cccc1F)S(=O)(=O)c1cccc(C#N)c1 [CBK306197],85.4
2,CCOC(=O)C1CCCN(Cc2nc3cc(Cl)ccc3c(=O)[nH]2)C1 (stereo not shown) [CBK306198],86.9
3,CC(C)n1c(CN2CCOCC2)nc2c1c(=O)n(C)c(=O)n2C [CBK306201],83.7
4,N#CCCn1cc(C(=O)N2CCOCC2)c(-c2cc3ccccc3o2)n1 [CBK306203],104
5,N#CCCn1cc(C(=O)N2CCOCC2)c(-c2ccccc2)n1 [CBK306207],86
6,N#CCCn1cc(C(=O)N2CCCCC2)c(-c2cccc(Cl)c2)n1 [CBK306209],80
7,CCN(C(C)=O)c1nc(CN2CCOC(c3ccc(F)cc3)C2)cs1 (stereo not shown) [CBK306213],94.3
8,COCc1cccc(Nc2ncnc3c2cnn3CCO)c1 [CBK306214],93.2
9,CCCCN(CC(F)(F)F)C(=O)Cc1csc(NC(=O)C(C)C)n1 [CBK306217],99.5
10,Cc1nc(C)n(CC2CCCN(Cc3nc4c(F)cccc4[nH]3)C2)n1 (stereo not shown) [CBK306218],110
11,CC(C)c1nc(CN2CCN(c3ccc4nncn4n3)CC2)cs1 [CBK306219],102
12,CCn1c(CN2CC(n3nc(C)cc3C)C2)nc2c(F)cccc21 [CBK306220],82
13,O=C1NC2(CCSC2)C(=O)N1Cc1noc(-c2cccs2)n1 (stereo not shown) [CBK306225],90.6
14,Cc1cc(C(=O)Nc2cc(F)c(N3CCCC3)c(F)c2)c(C)n1C1CC1 [CBK306226],102
15,CN1CCC(NC(=O)c2cccc(NC(=O)C3CCCCC3)c2)C1=O (stereo not shown) [CBK306228],81.3
16,CN(C)c1ccc(Nc2ncnc3c2cnn3CCC#N)cn1 [CBK306231],103
17,CC(=O)N(C)Cc1cccc(Nc2ncnc3c2cnn3CCC#N)c1 [CBK306232],88.5
18,Cc1cc(C)n(CC(=O)N2CCC(Nc3cccnn3)CC2)n1 [CBK306234],106
19,Cc1cc(NC(=O)N2CCCN(CC3CCCCC3)CC2)no1 [CBK306239],99.9
20,N#Cc1ccc(NCC(=O)Nc2ccn(Cc3ccncc3)n2)cc1 [CBK306241],89.7
21,CC(NC(=O)CCc1cccnc1)c1nc(-c2ccncc2)cs1 (stereo not shown) [CBK306243],90.8
22,CCOCC(=O)N(C)C1CCN(c2ncnc3ccccc23)CC1 [CBK306247],89.1
23,CC(C)NC(=O)N1CCN(Cc2nc(-c3ccoc3)no2)CC1 [CBK306248],88.2

row,SMILES,"viability at 28.5 h, 10 µM [%]"
1,O=C(Nc1cc(N2CCCS2(=O)=O)ccc1Cl)c1cc[nH]n1 [CBK306249],83.1
2,CCOC(=O)N1CCN(C(=O)Nc2ccc3oc(=O)n(C)c3c2)CC1 [CBK306250],109
3,CCCc1nc(-c2ccc3c(c2)CCCN3S(C)(=O)=O)cs1 [CBK306253],93
4,CC1CCN(C(=O)COC(=O)c2cnc(-c3ccncc3)s2)CC1 [CBK306255],94.6
5,Brc1ccc(C2(c3nnc(C4CCCO4)o3)CCOCC2)cc1 (stereo not shown) [CBK306258],117
6,CCC(NS(=O)(=O)c1cnc2c(c1)c(C)nn2C)C(O)C(F)(F)F (stereo not shown) [CBK306264],86.5
7,COc1ccc(Br)c(C(CO)N(C)C(=O)Cc2cnccc2C)c1 (stereo not shown) [CBK306267],96.4
8,O=C(NC1CCN(CC(F)(F)F)C1=O)c1ccnc(C2CC2)n1 (stereo not shown) [CBK306268],97
9,Cn1nc(CN2CCNC(=O)C2c2ccccc2C(F)(F)F)[nH]c1=O (stereo not shown) [CBK306269],91.3
10,COc1ccnc(N2CCN(C(=O)c3cc(C(C)=O)cn3C)CC2)n1 [CBK306272],91.2
11,Cc1sc2nc(C(C)N(C)Cc3cc[nH]n3)[nH]c(=O)c2c1C (stereo not shown) [CBK306275],99.3
12,Cc1cc(C)nc(NCc2cnn(C)c2C)n1 [CBK306276],88.1
13,CCOC(=O)C1CCN(C(=O)Nc2cc(C)on2)CC1 [CBK306280],88.5
14,CC(C)(C)OC(=O)N1CCN(Cc2ncc(-c3ccccc3)o2)CC1 [CBK306281],99.3
15,Cn1nccc1CNCc1c(Br)cc(F)c(F)c1N1CCCCC1 [CBK306284],92.8
16,COCC1CN(C(=O)Nc2ncc(Cc3ccc(C)c(Cl)c3)s2)CCO1 (stereo not shown) [CBK306286],84
17,CC(C)N(CC(N)=O)Cc1nc(-c2cccc(C(F)(F)F)c2)no1 [CBK306287],89.8
18,CC(c1cccs1)N(C)C(=O)NC1CCCc2c1cnn2CCO (stereo not shown) [CBK306289],113
19,CC(=O)N1CC(C(=O)N2CC3(CCCC3)c3c(F)cccc32)C1 [CBK306292],97.6
20,O=C(NCc1cccs1)N1CCCN(Cc2ccc(F)cc2)CC1 [CBK306294],97.4
21,Cc1ccn(-c2ccc(N3CCC(OC4CCOCC4)CC3)nn2)n1 [CBK306296],87
22,COCc1nc(C(=O)Nc2ccc(NC(C)=O)cc2C(F)(F)F)cs1 [CBK306298],107
23,NC(=O)NC(CC(=O)N1CCOC2CCCCC21)c1cccc(Br)c1 (stereo not shown) [CBK306299],93.8
